The record followed here is patent US11779582B2, “Composition for preventing or treating metastatic ovarian cancer, endometrial cancer or breast cancer” (LEMONEX INC., priority 2017, dated 2023).

Type in all cases: cell-based
In data set [1] the test system is monolayer cultured SKOV3ip1 ovarian cancer cells. In words: crystal violet cell viability, 2D monolayer culture. Particulars: monolayer cultured SKOV3ip1, 72 hours, different concentrations, crystal violet colorimeter (FIG. 3). How it is done: 2D monolayer culture was implemented in the following manner: cells were cultured at 37° C., 5% CO2 humidified atmosphere using RPMI 1640 medium (Corning, NY, USA) supplemented with 10% fetal bovine serum (Gibco, NY, USA) and 10 U/ml penicillin/streptomycin.
Crystal violet staining was implemented to determine the cell viability in the monolayer cultured cell model and sphere cultured cell model. In order to implement the crystal violet staining in the monolayer culture model, SKOV3ip1 cells (5×10^4) were dispensed in commercial 24-well plates and incubated overnight. Thereafter, the drug was dispensed with a desired concentration for experiment into each well, followed by further incubation for 72 hours. 300 μl of 0.2% crystal violet solution was added to each well, followed by further incubation for 20 minutes while gently stirring the same. The stained cells were washed with distilled water until a clean background is observed. For assessment using a colorimeter, the crystal violet dye was extracted with 1% SDS/PBS and absorbance was measured at 570 nm wavelength by EMax PLUS microplate reader (Molecular Device, USA).
(§1) The monolayer cultured or sphere cultured SKOV3ip1 cells were treated with the tyrosine kinase inhibitor and paclitaxel for 72 hours, the cell viability was determined by the crystal violet colorimeter, and results thereof are shown in FIG. 3.

Data set [2] has as its system sphere cultured SKOV3ip1 ovarian cancer cells. In words: crystal violet cell viability, 3D sphere culture. Particulars: for cell viability: sphere cultured SKOV3ip1, 72 hours, different concentrations, crystal violet colorimeter (FIG. 3). How it is done:
(§2) For 3D sphere culture, SKOV3ip1 cells (1×10^6) were dispensed on ultra-low adherent 6-well plate (Corning NY, USA), and then, cultured in 5% CO2 incubator using RPMI 1640 medium supplemented with 10% fetal bovine serum (Gibco, NY, USA) and 10 U/ml penicillin/streptomycin (Gibco).
In order to assess the cell viability in the sphere cultured cells, the SKOV3ip1 cells (5×10^4) were dispensed on the super-low adherent 24-well plate and cultured overnight. The cells were harvested from each well and the commercial 24-well plate was moved, followed by further incubation for 12 hours. The adhered and visualized cells were stained with 0.2% crystal violet solution for 20 minutes while gently agitating the same. The stained cells were washed with distilled water until a clean background is observed. For assessment using a colorimeter, the crystal violet dye was extracted with 1% SDS/PBS and absorbance was measured at 570 nm wavelength by EMax PLUS microplate reader (Molecular Device, USA).
as §1
Since the cell survival of the sphere cultured SKOV3ip1 cells is inhibited by BGJ398 treatment, whether such cell survival inhibition is intermediated through JAK/STAT3 signaling pathway was further examined. For this purpose, the selective JAK tyrosine kinase inhibitor AG490 was used at different concentrations of 3.125 to 50 μM in order to treat the monolayer cultured or sphere cultured SKOV3ip1 cells, and after 72 hours, whether it affects the cell viability and AKT and STAT3 activation was examined through crystal violet staining and immunostaining assay, and results thereof are shown in FIG. 7. Actin was used as a loading control group.
Under this ground, when administering BGJ398 in combination with paclitaxel typically used as the existing primary anticancer drug for ovarian cancer, whether paclitaxel resistance of the sphere cultured cells is overcome and improved was determined.

For data set [3], the system named is sphere cultured SKOV3ip1 cells. In words: microscopic observation of aggregated (spheroid) form. Particulars: 5 μM BGJ398, 3 μM TAE648, 5 μM imatinib (FIG. 5). How it is done: as §2
Data set [4] has as its system AKT and STAT3 phosphorylation in sphere cultured SKOV3ip1 cells. In words: immunostaining of AKT and STAT3 phosphorylation, sphere culture. Particulars: for phosphorylated AKT at Ser473: sphere cultured, 5 μM BGJ398, 3 μM TAE648, 5 μM imatinib, 72 hours (FIG. 6). From the text: In order to identify whether a change in signaling pathways associated with cell survival appears or not according to 2D monolayer culture (2D MC) and 3D sphere culture (3D SC), immunostaining was implemented. More particularly, after culturing SKOV3ip1 cells (1×10^6) by 2D monolayer culture or 3D sphere culture described in section 1.1, expression of cell-signaling molecules including AKT, STAT3, p42/44 ERK and p38 MAPK was detected and activation states in the monolayer cultured cells and the sphere cultured cells were compared. The monolayer cultured or sphere cultured SKOV3ip1 cells were harvested and washed once with ice-cold 1× phosphate buffered saline, followed by dissolving the same in 100 μl ice-cold RIPA buffer (20 mM Tris-Cl, pH 8.0, 125 mM NaCl, […], 1 mM ethylene diamine tetraacetic acid, 1% Triton X-100, 0.5% sodium deoxycholate, 0.1% sodium dodecyl sulfate, 1× complete protease inhibitor cocktail (Roche, Mannheim, Germany)) on ice. After assessing the protein concentration using a Bradford Protein assay kit (Biorad, CA, USA), the same amount of proteins (30 μg) was separated by SDS-PAGE and moved to a nitrocellulose membrane, followed by immunostaining the same using a horseradish peroxide conjugated second antibody and a specific antibody. An immune activation band was detected with SuperSignal West Pico Chemiluminescent Substrate (Thermo, IL, USA) using a Fusion Solo chemiluminescence analyzer (Vilber Rourmat Marne la Vallee, France). Antibodies to STAT3 (H-190), STAT3 (B-7) phosphorylated at Tyr705 and actin (C-2) were purchased from Santa Cruz Biotechnology. Rabbit monoclonal antibodies on AKT, AKT (D9E) phosphorylated at Ser473, FGFR1 phosphorylated at Tyr 653/654, p42/44 MAPK, phosphorylated p42/44 MAPK, p38 MAPK and p38 MAPK phosphorylated at Tyr 180/182 were purchased from Cell Signaling Technology (MA, USA). Further, HRP-conjugated goat anti-mouse and rabbit secondary antibodies were purchased from Jackson Laboratories, while BGJ398 used in the experiment (against FGFR1/2/3) was purchased from Selleckchem (USA).
Under this ground, in order to determine whether BGJ398 can vary the state of AKT and STAT3 in the sphere cultured SKOV3ip1 cells, the monolayer cultured (MC) or sphere cultured (SC) SKOV3ip1 cells were subjected to treatment using 5 μM BGJ398, followed by examining the degree of phosphorylation due to the above treatment.
Further, the sphere cultured SKOV3ip1 cells were treated with 5 μM BGJ398 (BGJ), 3 μM TAE648 (TAE) and 5 μM imatinib (IMT), respectively. After 72 hours, a cell lysate was obtained and subjected to immunostaining, followed by analyzing active cellular expression of AKT and STAT3 with the antibody for the same. Further, a phosphorylation level of FGFR1 was used as a positive control group relative to BGJ treatment groups while actin was used as a loading control group. The immunostaining assay procedure was implemented in the same manner as in Example 1.
Since the cell survival of the sphere cultured SKOV3ip1 cells is inhibited by BGJ398 treatment, whether such cell survival inhibition is intermediated through JAK/STAT3 signaling pathway was further examined. […]

The subject of the next data set is SKOV3-TR. Nature of the data set: crystal violet staining assay, cisplatin and BGJ398, 2D culture. Particulars: 2D culture, cisplatin alone (FIG. 29). How it is done: (§3) According to the same procedures as described in the previous examples, each cell line was subjected to 2D culture and a change thereof upon administration of cisplatin alone, BGJ398 alone or in combination with cisplatin was analyzed through crystal violet staining assay.

Another data set relates to SKOV3ip1. The description is as above. Particulars: SKOV3ip1, 2D culture, cisplatin alone (FIG. 29). On the procedure:
as §3

The test system of data set [5] is SKOV3-TR ovarian cancer cells. In words: crystal violet cell viability in paclitaxel-resistant cells. On the procedure:
SKOV3-TR cell line was offered from Sood AK in MD-Anderson Cancer Center (USA) and then used in the present experiments.
Paclitaxel resistance of each of SKOV3 and SKOV3-TR was determined by measuring the cell viability through crystal violet colorimetric assay. This experiment was implemented three times and a difference in results thereof was estimated by student's t-test.
(§4) According to the same procedures as described in the previous examples, each cell line was divided and cultured by 2D monolayer culture and 3D sphere culture, respectively. Then, a change due to administration of BGJ398 alone or in combination with paclitaxel was analyzed through morphological analysis and crystal violet staining assay.

The subject of data set [6] is SKOV3-TR ovarian cancer cells. In words: microscopic analysis of cell shape change due to cytotoxicity. Particulars: single agent: 2.5 μM BGJ398 or 50 nM paclitaxel (FIG. 20). On the procedure:
as §4
FIG. 20 illustrates a change in cell shape due to cytotoxicity under microscopic analysis, when paclitaxel alone, BGJ398 alone or in combination with paclitaxel was administered to SKOV3-TR ovarian cancer cells.

For `COc1cc(N2CCC(N3CCN(C)CC3)CC2)ccc1Nc1ncc(Cl)c(Nc2ccccc2S(=O)(=O)C(C)C)n1` [TAE684], the cell viability result in data set [1] is “reduced by paclitaxel and TAE648 in a dose-dependent manner”; in data set [2] it was “TAE648 resistance was not identified”. Further, the “aggregated (spheroid) form of cells” value in data set [3] is given as “spheroid degradation was not observed”. Further, the “phosphorylated AKT at Ser473” value in data set [4] is recorded as “did not show such effects”.

As to `N#C/C(=C\c1ccc(O)c(O)c1)C(=O)NCc1ccccc1` [AG490, reference compound], in data set [2] (sphere cultured SKOV3ip1, AG490 3.125 to 50 μM, 72 hours (FIG. 7A)), the cell growth result is “did not suppress cell growth”. Also, the “AKT and STAT3 phosphorylation” value in data set [4] (sphere cultured SKOV3ip1, 5 μM BGJ398 (FIG. 6), AG490, 72 hours (FIG. 7B)) is “not inhibited”.

Take `N.N.[Cl][Pt][Cl]` [cisplatin, reference compound]: the sensitivity to cisplatin result with SKOV3-TR and in the data set on SKOV3ip1 was “exhibit sensitivity to cisplatin” in each case.

Take `CC(=O)O[C@H]1C(=O)[C@@]2(C)[C@H]([C@H](OC(=O)c3ccccc3)[C@]3(O)C[C@H](OC(=O)[C@H](O)[C@@H](NC(=O)c4ccccc4)c4ccccc4)C(C)=C1C3(C)C)[C@]1(OC(C)=O)CO[C@@H]1C[C@@H]2O` [paclitaxel, reference compound]: the cell viability result is “reduced by paclitaxel and TAE648 in a dose-dependent manner” in data set [1]; “more obviously resistant to paclitaxel than the monolayer cultured SKOV3ip1 cells” in data set [2]. For the same compound, the paclitaxel resistance entry in data set [5] (SKOV3-TR compared with SKOV3, crystal violet colorimetric assay (FIG. 15)) is given as “significantly higher than SKOV cell line”. In addition, the anticancer activity entry in data set [5] (paclitaxel alone (FIGS. 18, 19)) was “negligible”. Also, the “cytotoxicity and morphological change” value in data set [6] was “negligible cytotoxicity and no morphological change”.

For `Cc1ccc(NC(=O)c2ccc(CN3CCN(C)CC3)cc2)cc1Nc1nccc(-c2cccnc2)n1` [imatinib], the cell viability result is given as “not effected” in data set [1] and “did not affect the cell viability” in data set [2]. The “aggregated (spheroid) form of cells” value in data set [3] is reported as “spheroid degradation was not observed”. For the same compound, in data set [4], the “phosphorylated AKT at Ser473” value is “did not show such effects”.
